pIC50: −log10 of the molar value. Where two headings read alike, the source gives them in different places.
Tests used:
MV4;11 cells = test: Cell Titer-Glo Luminescent Cell Viability Assay, cell growth inhibition against MV4;11 cells; assay type: cell-based; details: Homo sapiens
Summary of the method: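 MV4;11 cells seeded at 3750/well, exposed to a 10-point 4-fold dilution series (0–50 μM); on Day 5 cells were split into fresh compound and media and grown to Day 10. Viability by CellTiter-Glo ATP luminescence at Day 5 and Day 10; IC50 from dose curves.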

LSD1 = LSD1 (Homo sapiens, UniProt O60341); test: LSD1 10-dose IC50 fluorescence coupling enzyme assay (HRP/Amplex Red, resorufin); assay type: biochemical; details: 10 M histone H3(1-21)K4me2 peptide substrate; 3-fold serial dilution in duplicate starting at 100 μM
Procedure: Compounds were tested in a 10-dose IC50 mode fluorescence coupling enzyme assay with 3-fold serial dilution in duplicate starting at 100 μM. The production of FAD-dependent H2O2 as a result of demethylase activity of LSD1 on […] histone H3(1-21)K4me2 peptide substrate was measured by coupling with HRP and Amplex Red to yield resorufin (fluorescence measured at Ex/Em=535/590 nm on EnVision, Perkin Elmer).

[1] = MV4-11, 120 h, MV4;11 cells, Day 5, 10-point dose curve 0 to 50 μM, read-out: Cell Titer Glo IC50 (5 d)
[2] = MV4-11, MV4;11 cells, Day 10 (re-seeded at Day 5 with fresh compound), 10-point dose curve 0 to 50 μM, read-out: Cell Titer Glo IC50 (10 d)

SMILES	pIC50 (MV4;11 cells; [1])	pIC50 (LSD1)	pIC50 (MV4;11 cells; [2])
COc1ccc(-n2nc(C(=O)N3CCC[C@@H](N)C3)cc2-c2ccc(C#N)c(F)c2)cc1 [Example 18, (R)-4-(3-(3-Aminopiperidine-1-carbonyl)-1-(4-methoxyphenyl)-1H-pyrazol-5-yl)-2-fluorobenzonitrile]	> 6.30	> 6.30	> 6.30
CN1CCN(c2ccc(-n3nc(C(=O)N4CCC[C@@H](N)C4)cc3-c3ccc(C#N)c(F)c3)cc2)CC1 [Example 60, (R)-4-(3-(3-aminopiperidine-1-carbonyl)-1-(4-(4-methylpiperazin-1-yl)phenyl)-1H-pyrazol-5-yl)-2-fluorobenzonitrile]	6.00 to 6.30	> 6.30	> 6.30
COc1ccc(-n2nc(C(=O)N3CCCC(N)C3)cc2-c2ccc(C#N)cc2)cc1 (centres unmarked) [Example 2, 4-(3-(3-Aminopiperidine-1-carbonyl)-1-(4-methoxyphenyl)-1H-pyrazol-5-yl)benzonitrile]	6.00 to 6.30	> 6.30	–
COC1CCN(c2ccc(-n3nc(-c4ccc(C#N)c(F)c4)cc3C(=O)N3CCC[C@@H](N)C3)cc2)CC1 [Example 57, (R)-4-(5-(3-aminopiperidine-1-carbonyl)-1-(4-(4-methoxypiperidin-1-yl)phenyl)-1H-pyrazol-3-yl)-2-fluorobenzonitrile 2,2,2-trifluoroacetate]	–	> 6.30	5.00 to 6.00

The next lines start with results.

pIC50 (MV4;11 cells; [1])	pIC50 (LSD1)	SMILES	pIC50 (MV4;11 cells; [2])
5.00 to 6.00	5.00 to 6.00	COc1ccc(-n2nc(C(=O)NC3CCCNC3)cc2-c2ccc(C#N)cc2)cc1 (centres unmarked) [Example 3, 5-(4-Cyanophenyl)-1-(4-methoxyphenyl)-N-(piperidin-3-yl)-1H-pyrazole-3-carboxamide 2,2,2-trifluoroacetate]	–
5.00 to 6.00	5.00 to 6.00	COc1ccc(-n2nc(C(=O)NC3CCNCC3)cc2-c2ccc(C#N)c(F)c2)cc1 [Example 24, 5-(4-Cyano-3-fluorophenyl)-1-(4-methoxyphenyl)-N-(piperidin-4-yl)-1H-pyrazole-3-carboxamide]	–
5.00 to 6.00	6.00 to 6.30	COc1ccc(-n2nc(C(=O)N3CCC[C@H](N)C3)cc2-c2ccc(C#N)c(F)c2)cc1F [Example 37, (S)-4-(3-(3-aminopiperidine-1-carbonyl)-1-(3-fluoro-4-methoxyphenyl)-1H-pyrazol-5-yl)-2-fluorobenzonitrile]	–
–	> 6.30	N#Cc1ccc(-c2cc(C(=O)N3CCC[C@@H](N)C3)nn2-c2ccc(N3CCC(C#N)CC3)cc2)cc1F [Example 48, (R)-1-(4-(3-(3-aminopiperidine-1-carbonyl)-5-(4-cyano-3-fluorophenyl)-1H-pyrazol-1-yl)phenyl)piperidine-4-carbonitrile 2,2,2-trifluoroacetate]	> 6.30
5.00 to 6.00	> 6.30	Cc1ccc(-n2nc(C(=O)N3CCCC(CN)C3)cc2-c2ccc(C#N)c(F)c2)cc1 (centres unmarked) [Example 7, 4-(3-(3-(Aminomethyl)piperidine-1-carbonyl)-1-(p-tolyl)-1H-pyrazol-5-yl)-2-fluorobenzonitrile]	–
